Source: US8703431B2, “Polypeptides for the in vitro assessment of the sensitising potential of a test compound” (Immunosearch, priority 2009, dated 2014)

What was measured:
[1] = target: T1, polypeptide SEQ ID NO: 8 in which X1, X2, X3 and X4 each represents a lysine (Mus musculus, UniProt O09114); experiment: HPLC test of % fixing of test compound on polypeptide; assay type: binding; details: 5 mM test compound; for % fixing (mean), SEQ ID NO: 8 (X1-X4 lysine): Example 4; for fixing, SEQ ID NO: 8 (X1-X4 lysine), pH 8.3 / fixing, SEQ ID NO: 8 (X1-X4 lysine), pH 8.8 / fixing, SEQ ID NO: 8 (X1-X4 lysine), pH 9.2: Example 3; for fixing, SEQ ID NO: 8 (X1-X4 lysine), pH 8.3: twice 0.5 mM polypeptide (SEQ ID NO: 19 and 8), TRIS-HCl pH 8.3; for fixing, SEQ ID NO: 8 (X1-X4 lysine), pH 8.3 / fixing, SEQ ID NO: 8 (X1-X4 lysine), pH 9.2: 'Fixing' = fixing exists but not quantifiable; for fixing, SEQ ID NO: 8 (X1-X4 lysine), pH 8.8: TRIS-HCl pH 8.8; for fixing, SEQ ID NO: 8 (X1-X4 lysine), pH 9.2: TRIS-HCl pH 9.2
T1 construct: made in house; host or cells: chemical peptide synthesis (Fmoc)
T1 sequence (O09114 148-173 limits assumed): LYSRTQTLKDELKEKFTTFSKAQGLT
Method: (§1) A test with 0.5 mM of polypeptide and 5 mM of test compound is carried out under the following conditions:
(§2) The reaction mixture containing 40 μl of peptide solution (1.25 mM stock solution in a 100 mM ammonium acetate buffer at pH 10.2 and the polypeptide of sequence SEQ ID NO: 18, SEQ ID NO: 7 in which X1, X2, X3 and X4 each represents a lysine, or SEQ ID NO: 8 in which X1, X2, X3 and X4 each represents a lysine), 35 μl of 100 mM ammonium acetate buffer solution, at pH 10.2, 20 μl of acetonitrile and 5 μl of solution to be tested (100 mM stock solution in acetonitrile or a 50% acetonitrile 50% DMSO mixture) was prepared and then stirred.
(§3) The reaction mixture was then put to incubate at 30° C. for 4 hours and in darkness.
(§4) HPLC analysis was then carried out at a gradient of 10% to 45% of buffer B (acetonitrile+0.08% of trifluoroacetic acid (TFA)) in 20 minutes (buffer A: water+0.1% of TFA), rate 1 ml/minute. Detection was carried out under UV at 230 nm.
(§5) The control without allergen consisted of 40 μl of buffer solution.
(§6) The buffer used was 100 Mm TRIS-HCl at pH 8.3, pH 9.2 and pH 8.8.
(§7) The buffer used was TRIS-HCl at 100 mM.
(§8) A test with twice 0.5 mM of polypeptides of sequences SEQ ID NO: 19 and SEQ ID NO: 1 wherein X1, X2, X3 and X4 each represent a lysine, and having an NH2 group at its C-Terminal end, and SEQ ID NO: 8 wherein X1, X2, X3 and X4 each represent a lysine, and 5 mM of test compound, was carried out in accordance with the same protocol as that described for example 1.

[2] = tested on: polypeptide of sequence SEQ ID NO: 19 (Ac-RFAACAA-NH2); experiment: HPLC test of % fixing of test compound on polypeptide (positive control peptide); assay type: binding; details: 5 mM test compound; for % fixing (mean), SEQ ID NO: 19: Example 4; for fixing, SEQ ID NO: 19, pH 8.3 / fixing, SEQ ID NO: 19, pH 9.2 / fixing, SEQ ID NO: 19, pH 8.8: Example 3; for fixing, SEQ ID NO: 19, pH 8.3: twice 0.5 mM polypeptide (SEQ ID NO: 19 and 8), TRIS-HCl pH 8.3; for fixing, SEQ ID NO: 19, pH 8.3 / fixing, SEQ ID NO: 19, pH 8.8: 'Fixing' = fixing exists but not quantifiable; for fixing, SEQ ID NO: 19, pH 9.2: TRIS-HCl pH 9.2; for fixing, SEQ ID NO: 19, pH 8.8: TRIS-HCl pH 8.8
Method: as §1, §2, §3, §4, §5
A test with 0.5 mM of polypeptide of sequence […] and 5 mM of test compound was carried in accordance with the same protocol as that described for example 1.
The sequence SEQ ID NO: 19, which is not a lipocalin derivative, was used as a positive control. This sequence corresponds to the following sequence:
The buffer used was 100 mM TRIS-HCl at pH 8.3.
as §6, §7, §8

[3] = tested on: polypeptide SEQ ID NO: 1 wherein X1, X2, X3 and X4 each represent a lysine, having an NH2 group at its C-Terminal end; experiment: HPLC test of % fixing of test compound on polypeptide; assay type: binding; details: for % fixing, SEQ ID NO: 1 (X1-X4 lysine, NH2 group at C-Terminal end): Example 5, 5 mM test compound, TRIS-HCl 100 mM, signal disturbed, preventing measurements greater than 82-83% fixing, these values represent a minimum
Method: as §1, §2, §3, §4, §5, §8, §7
It should be noted, in the case of the tests of SEQ ID NO: 1, the signal was disturbed, preventing measurements greater than 82-83% fixing. These values consequently represent a minimum.
A coelution of the polypeptide with the allergens cinnamic aldehyde and 1,2-Benzisothiazolin-3-one was observed.

[4] = skin sensitisation, as stated in the description; cited from earlier work
[5] = tested on: polypeptide of sequence SEQ ID NO: 18 (Ac-RFAAKAA-NH2); experiment: HPLC test of % fixing of test compound on polypeptide (positive control peptide); assay type: binding; details: 0.5 mM polypeptide, 5 mM test compound, 100 mM ammonium acetate buffer pH 10.2, 30° C., 4 hours, darkness
Method: as §1, §2
The sequence SEQ ID NO: 18, which is not a lipocalin derivative, was used as a positive control. This sequence corresponds to the following sequence:
as §3, §4, §5

[6] = target: T2, polypeptide SEQ ID NO: 7 in which X1, X2, X3 and X4 each represents a lysine (Mus musculus, UniProt P11672, DEL176-176); experiment: HPLC test of % fixing of test compound on polypeptide; assay type: binding; details: 0.5 mM polypeptide, 5 mM test compound, 100 mM ammonium acetate buffer pH 10.2, 30° C., 4 hours, darkness
T2 construct: made in house; host or cells: chemical peptide synthesis (Fmoc)
T2 sequence (P11672 with tags, fused parts or gaps DEL176-176 limits assumed): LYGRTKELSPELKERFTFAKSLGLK
Method: as §1, §2, §3, §4, §5

[7] = twice 0.5 mM polypeptide, TRIS-HCl 100 mM, 'Fixing' = not quantifiable
[8] = Example 5, twice 0.5 mM polypeptide, TRIS-HCl 100 mM, 'Fixing' = not quantifiable
[9] = Example 2, 0.5 mM polypeptide, 100 mM TRIS-HCl pH 8.3
[10] = twice 0.5 mM polypeptide, TRIS-HCl 100 mM
[11] = Example 5, twice 0.5 mM polypeptide, TRIS-HCl 100 mM
[12] = 0.5 mM polypeptide, 100 mM ammonium acetate buffer pH 10.2, 30° C., 4 hours, darkness

| SMILES | % fixing (mean), SEQ ID NO: 8 (X1-X4 lysine) [1, 7] | % fixing, SEQ ID NO: 8 (X1-X4 lysine) [1, 8] | % fixing, SEQ ID NO: 19 [2, 9] [%] | % fixing (mean), SEQ ID NO: 19 [2, 10] [%] | % fixing, SEQ ID NO: 19 [2, 11] [%] | % fixing, SEQ ID NO: 1 (X1-X4 lysine, NH2 group at C-Terminal end) [3] [%] | sensitising capacity (sensitiser class) [4] | fixing, SEQ ID NO: 8 (X1-X4 lysine), pH 8.3 [1] | fixing, SEQ ID NO: 8 (X1-X4 lysine), pH 8.8 ([1]; twice 0.5 mM polypeptide) [%] | fixing, SEQ ID NO: 8 (X1-X4 lysine), pH 9.2 ([1]; twice 0.5 mM polypeptide) | fixing, SEQ ID NO: 19, pH 8.3 [2] | fixing, SEQ ID NO: 19, pH 9.2 ([2]; twice 0.5 mM polypeptide) [%] | precipitation of test compound during measurements with SEQ ID NO: 1 ([3]; Example 5 conditions, explains the medium fixing results) | fixing, SEQ ID NO: 19, pH 8.8 ([2]; twice 0.5 mM polypeptide) | % fixing, SEQ ID NO: 18 [5] [%] | % fixing, SEQ ID NO: 7 (X1-X4 lysine) [6] [%] | % fixing, SEQ ID NO: 8 (X1-X4 lysine) [1, 12] [%] |
| --- | --- | --- | --- | --- | --- | --- | --- | --- | --- | --- | --- | --- | --- | --- | --- | --- | --- |
| CC(C)=CCCC(C)=CC=O [Cal, citral] | 70% | 70% | 70 | 46 | 46 | 64 | moderate sensitisers |  |  |  |  |  |  |  |  |  |  |
| Oc1ccc(O)cc1 [HQ, 1,4-hydroquinone] | 100% | 100% |  | 90 | 90 | 82.5 | strong sensitisers | 100% | 100 | Fixing | 100% |  |  |  |  |  |  |
| O=CCc1ccccc1 [PA, phenylacetaldehyde] | Fixing | Fixing |  | 81 | 81 | 54 | moderate sensitisers | Fixing | 0 | 21% | 100% | 86 | very greatly precipitated |  |  |  |  |
| O=CCCCC=O [GA, glutaraldehyde] | 50% | 50% |  | 33 | 33 | 83 | strong sensitisers | 50% | 100 | 50% | 22% | 33 |  | Fixing |  |  |  |
| O=c1c(-c2ccccc2)c1-c1ccccc1 [DPCP, diphenylcyclopropenone] |  |  | 96 | 100 | 100 | 83.5 | extremely strong sensitiser |  |  |  |  |  |  |  |  |  |  |
| CC(O)C(=O)O (centres unmarked) [LA, lactic acid] | 0% | 0% |  | 0 | 0 | 1 | non-sensitising | 0% | 0 | 0% | 0% | 0 |  | 0% |  |  |  |
| CC(C=O)Cc1ccc(C(C)(C)C)cc1 (centres unmarked) [Li, lilial] | 0% | 0% |  | 18 | 18 | 12 | weak sensitiser | 0% |  |  | 36% | 0 |  |  |  |  |  |
| O=C/C=C/c1ccccc1 [CA, cinnamic aldehyde] | 30% | 30% |  |  |  |  | moderate sensitisers |  |  |  |  |  |  |  | 17 | 100 | 30 |
| CN(C)CCCN [3-DMAPA, 3-3-dimethylaminopropylamine] | 6% | 6% | 25 | 15 | 15 | 3 | moderate sensitisers |  |  |  |  |  |  |  |  |  |  |
| Clc1ccccc1 [Cbz, chlorobenzene] | 0% | 0% | 0 | 0 | 0 | 7.5 | non-sensitising |  |  |  |  |  |  |  | 0 | 0 | 0 |
| O=c1[nH]sc2ccccc12 [Ben, 1,2-benzisothiazolin-3-one] |  |  |  | 90 | 90 |  | moderate sensitisers | 100% | 100 | 0% | Fixing |  |  | Fixing |  |  |  |
